Measurements from patent US6620785B2, “Treatment of Mycobacterial diseases by administration of bactericidal/permeability-increasing protein products” (Xoma Corporation, priority 1993, dated 2003).
Read-outs that look alike come from different tables or passages of the source.

How the values were obtained:
[1] = tested on: M. tuberculosis; assay: Bactec growth index assay of M. tuberculosis with rBPI23 and antibiotics (Example 5); type: cell-based
[2] = tested on: M. tuberculosis (strain H37Ra) induced production of TNF by monocytes/macrophages; type: cell-based, human; conditions: second test, 4 μg/ml

With CO[C@H]1/C=C/O[C@@]2(C)Oc3c(C)c(O)c4c(O)c(c(/C=N/N5CCN(C)CC5)c(O)c4c3C2=O)NC(=O)/C(C)=C\C=C\[C@H](C)[C@H](O)[C@@H](C)[C@@H](O)[C@@H](C)[C@H](OC(C)=O)[C@@H]1C [RMP, rifampin] the growth index ([1]; RMP 0.5 and 1.0 μg/ml, entire test period (day 2 to 18)) was “essentially no increase in growth index”.

NNC(=O)c1ccncc1 [INH, isoniazid] was tested, and the growth index ([1]; INH alone, no BPI protein product, 0.006-0.05 μg/ml) was “increases generally began earlier and rose more steeply at lower doses than at higher doses”.

B1: BPI holoprotein: recombinant human bactericidal/permeability-increasing holoprotein, SEQ ID NOS:1 and 2 (protein)
chain: MRENMARGPCNAPRWVSLMVLVAIGTAVTAAVNPGVVVRISQKGLDYASQQGTAALQKELKRIKIPDYSDSFKIKHLGKGHYSFYSMDIREFQLPSSQISMVPNVGLKFSISNANIKISGKWKAQKRFLKMSGNFDLSIEGMSISADLKLGSNPTSGKPTITCSSCSSHINSVHVHISKSKVGWLIQLFHKKIESALRNKMNSQVCEKVTNSVSSKLQPYFQTLPVMTKIDSVAGINYGLVAPPATTAETLDVQMKGEFYSENHHNPPPFAPPVMEFPAAHDRMVYLGLSDYFFNTAGLVYQEAGVLKMTLRDDMIPKESKFRLTTKFFGTFLPEVAKKFPNMKIQIHVSASTPPHLSVQPTGLTFYPAVDVQAFAVLPNSSLASLFLIGMHTTGSMEVSAESNRLVGELKLDRLLLELKHSNIGPFPVELLQDIMNYIVPILVLPRVNEKLQKGFPLPTPARVQLYNVVLQPHQNFLLFGADVVYK
For B1, the “inhibition of TNF production” value ([2]; 3×10^5 to 1×10^7 organisms) was “Lesser degrees of inhibition” and the “inhibition of TNF production” value ([2]; highest concentration of organisms, one duplicate test) was “no inhibition at all”.
